The values below come from ChEMBL document CHEMBL3286114, “Dual RXR Agonists and RAR Antagonists Based on the Stilbene Retinoid Scaffold” (ACS Med Chem Lett, 2014).

Type in all cases: cell-based
The target in test [1] is T1, Retinoic acid receptor alpha (Mus musculus) (UniProt P11416).
T1 sequence (whole entry): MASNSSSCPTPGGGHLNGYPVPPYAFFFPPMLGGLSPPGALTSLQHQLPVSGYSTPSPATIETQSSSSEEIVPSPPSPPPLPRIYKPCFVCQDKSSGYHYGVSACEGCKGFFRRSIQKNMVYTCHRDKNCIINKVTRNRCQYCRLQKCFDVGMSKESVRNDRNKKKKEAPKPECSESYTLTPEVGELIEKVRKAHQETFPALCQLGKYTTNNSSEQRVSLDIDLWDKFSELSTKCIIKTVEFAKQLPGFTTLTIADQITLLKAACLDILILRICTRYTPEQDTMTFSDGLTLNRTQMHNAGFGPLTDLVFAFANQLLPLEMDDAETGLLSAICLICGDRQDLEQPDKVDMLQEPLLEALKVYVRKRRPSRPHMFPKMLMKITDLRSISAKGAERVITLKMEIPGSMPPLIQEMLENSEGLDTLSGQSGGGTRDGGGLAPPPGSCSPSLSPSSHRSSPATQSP
Kind of test: Agonist activity at Gal4-fused mouse RAR-alpha transfected in human HeLa cells after 12 hrs by luciferase reporter gene assay.

The target in test [2] is T2, Retinoic acid receptor beta (Mus musculus) (UniProt P22605).
T2 sequence (whole entry): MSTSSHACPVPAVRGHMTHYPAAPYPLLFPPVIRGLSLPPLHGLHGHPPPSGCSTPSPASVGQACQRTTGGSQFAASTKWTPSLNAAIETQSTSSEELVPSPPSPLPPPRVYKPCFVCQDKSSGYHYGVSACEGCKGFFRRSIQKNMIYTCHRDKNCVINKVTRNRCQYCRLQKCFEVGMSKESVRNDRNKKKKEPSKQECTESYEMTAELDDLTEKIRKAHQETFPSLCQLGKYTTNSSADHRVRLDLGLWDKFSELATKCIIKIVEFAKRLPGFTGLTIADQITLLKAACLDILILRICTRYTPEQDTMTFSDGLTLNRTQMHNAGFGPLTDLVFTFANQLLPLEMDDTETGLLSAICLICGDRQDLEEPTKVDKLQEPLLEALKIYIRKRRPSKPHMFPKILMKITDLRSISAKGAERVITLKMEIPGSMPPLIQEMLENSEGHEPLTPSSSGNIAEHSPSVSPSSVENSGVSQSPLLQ
Kind of test: Agonist activity at Gal4-fused mouse RAR-beta transfected in human HeLa cells at 10 uM after 12 hrs by luciferase reporter gene assay.

The target in test [3] is T3, Retinoic acid receptor gamma (Mus musculus) (UniProt P18911).
T3 sequence (whole entry): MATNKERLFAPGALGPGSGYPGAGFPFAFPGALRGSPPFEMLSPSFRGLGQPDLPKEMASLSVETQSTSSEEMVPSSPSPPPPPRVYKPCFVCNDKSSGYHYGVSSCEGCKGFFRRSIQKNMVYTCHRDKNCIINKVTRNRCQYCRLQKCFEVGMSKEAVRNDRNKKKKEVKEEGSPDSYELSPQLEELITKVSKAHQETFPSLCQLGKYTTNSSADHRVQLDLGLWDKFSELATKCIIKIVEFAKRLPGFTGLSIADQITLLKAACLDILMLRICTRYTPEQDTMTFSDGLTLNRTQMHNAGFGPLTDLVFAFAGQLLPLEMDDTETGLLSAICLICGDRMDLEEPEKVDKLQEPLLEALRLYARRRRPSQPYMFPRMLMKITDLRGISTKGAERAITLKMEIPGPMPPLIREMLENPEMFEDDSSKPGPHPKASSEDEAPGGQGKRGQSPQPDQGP
Kind of test: Agonist activity at Gal4-fused mouse RAR-gamma transfected in human HeLa cells at 10 uM after 12 hrs by luciferase reporter gene assay.

The target in test [4] is T2, Retinoic acid receptor beta (Mus musculus). Nature of the test: Agonist activity at Gal4-fused mouse RAR-beta transfected in human HeLa cells at >1 uM after 12 hrs by luciferase reporter gene assay.
Test [5] addresses T4, Retinoic acid receptor RXR-beta (Homo sapiens) (UniProt P28702).
T4 sequence (whole entry): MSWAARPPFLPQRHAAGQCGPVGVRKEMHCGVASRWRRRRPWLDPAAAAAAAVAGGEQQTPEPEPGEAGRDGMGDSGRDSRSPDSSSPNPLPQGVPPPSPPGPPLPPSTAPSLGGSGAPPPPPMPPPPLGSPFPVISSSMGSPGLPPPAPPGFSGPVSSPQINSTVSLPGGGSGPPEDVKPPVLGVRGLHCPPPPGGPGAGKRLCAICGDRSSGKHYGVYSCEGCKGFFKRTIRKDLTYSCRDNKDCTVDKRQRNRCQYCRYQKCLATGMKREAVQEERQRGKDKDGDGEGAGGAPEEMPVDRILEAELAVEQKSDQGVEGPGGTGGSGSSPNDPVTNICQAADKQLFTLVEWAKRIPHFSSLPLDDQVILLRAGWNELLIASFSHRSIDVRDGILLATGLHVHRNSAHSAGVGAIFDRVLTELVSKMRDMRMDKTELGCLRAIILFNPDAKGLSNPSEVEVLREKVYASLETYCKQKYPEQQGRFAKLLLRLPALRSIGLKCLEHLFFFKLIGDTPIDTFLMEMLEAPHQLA
Kind of test: Agonist activity at Gal4-fused human RXR-beta transfected in human HeLa cells at 51 nM after 12 hrs by luciferase reporter gene assay relative to control.

For test [6], the target named is T4, Retinoic acid receptor RXR-beta (Homo sapiens). Nature of the test: Agonist activity at Gal4-fused human RXR-beta transfected in human HeLa cells at 125 nM after 12 hrs by luciferase reporter gene assay relative to control.
The target is the same in test [7]. Kind of test: Agonist activity at Gal4-fused human RXR-beta transfected in human HeLa cells at 875 nM after 12 hrs by luciferase reporter gene assay relative to control.
Test [8] shares this target. Nature of the test: Agonist activity at Gal4-fused human RXR-beta transfected in human HeLa cells at 541 nM after 12 hrs by luciferase reporter gene assay relative to control.
Test [9] has the same target. Kind of test: Agonist activity at Gal4-fused human RXR-beta transfected in human HeLa cells after 12 hrs by luciferase reporter gene assay.
Test [10] concerns the target T1, Retinoic acid receptor alpha (Mus musculus). Kind of test: Agonist activity at Gal4-fused mouse RAR-alpha transfected in human HeLa cells at 1 uM after 12 hrs by luciferase reporter gene assay.
Test [11] deals with T2, Retinoic acid receptor beta (Mus musculus). Nature of the test: Agonist activity at Gal4-fused mouse RAR-beta transfected in human HeLa cells at 1 uM after 12 hrs by luciferase reporter gene assay.
The target of test [12] is T3, Retinoic acid receptor gamma (Mus musculus). Kind of test: Agonist activity at Gal4-fused mouse RAR-gamma transfected in human HeLa cells at 1 uM after 12 hrs by luciferase reporter gene assay.
Test [13] has as its target T1, Retinoic acid receptor alpha (Mus musculus). Nature of the test: Antagonist activity at Gal4-fused mouse RAR-alpha transfected in human HeLa cells after 12 hrs by luciferase reporter gene assay.
Test [14] concerns the target T2, Retinoic acid receptor beta (Mus musculus). Kind of test: Antagonist activity at Gal4-fused mouse RAR-beta transfected in human HeLa cells after 12 hrs by luciferase reporter gene assay.
The target of test [15] is T3, Retinoic acid receptor gamma (Mus musculus). Kind of test: Antagonist activity at Gal4-fused mouse RAR-gamma transfected in human HeLa cells after 12 hrs by luciferase reporter gene assay.

Activity calls are given as the source filed them. No cut-off for these calls is given here.

In the case of `O=C(O)c1ccc(NC(=O)c2ccc3c(-c4ccccc4)ccc(-c4ccccc4)c3c2)cc1`, in test [1], the outcome was inactive. Besides, the outcome in test [2], in test [3] and in test [4] was Active.
With `C/C(=C\c1ccc(C(=O)O)cc1)c1ccc2c(c1)C(C)(C)CCC2(C)C`, the fold change (FC) in test [5], in test [6], in [7] and in test [8] was 15 throughout.
As for `O=C(O)c1ccc(NC(=O)c2ccc3c(-c4ccccc4)ccc(-c4ccccc4)c3c2)c(F)c1`, the result in test [1] was inactive. Further, the result in [2] and in test [3] was Active.
Regarding `O=C(O)c1ccc(/C=C/c2ccc3c(-c4ccccc4)ccc(-c4ccccc4)c3c2)c(F)c1`, the outcome in test [9], in test [13], in [14] and in test [15] was Active. In addition, the outcome in test [10], in test [11] and in [12] was inactive. Moreover, the fold change (FC) in [5], in test [6], in test [7] and in test [8] was 15 in each case.
With `O=C(O)c1ccc(/C=C/c2ccc3c(-c4ccccc4)ccc(-c4ccccc4)c3c2)c(Br)c1`, the outcome in [9], in [13], in test [14] and in test [15] was Active. Moreover, the outcome in test [10], in [11] and in test [12] was inactive. Also, the fold change (FC) in [5], in test [6], in [7] and in [8] was 15 in each case.
Turning to `O=C(O)c1ccc(/C=C/c2ccc3c(-c4ccccc4)ccc(-c4ccccc4)c3c2)cc1`, the outcome in [9], in [13], in [14] and in [15] was Active. Besides, the result in [10], in [11] and in [12] was inactive. The fold change (FC) in test [5], in test [6], in [7] and in [8] was 15 throughout.
Turning to `O=C(O)c1ccc(NC(=O)c2ccc3c(-c4ccccc4)ccc(-c4ccccc4)c3c2)c(Cl)c1`, the result in [1] was inactive. The outcome in test [2] and in test [3] was Active.
